Values of other authors as cited in publication PMC8513935.
One block for each compound: values may come before it.

How the values were obtained:
[1] = log P octanol/water from commercial databases, averaged (the ESI); details: Octanol (wet), 25 C
[2] = derived by the authors as gas->solvent minus gas->water (a hypothetical dry solvent; the ESI), not a two-phase measurement
[3] = experimental, compiled by the authors from the literature (the ESI cites the sources)

log K of transfer, water to solvent [1]: 5.15 log10 K
log K of transfer, water to solvent ([2]; 1,2-Dichloroethane, 25 C): 5.55 log10 K
log K of transfer, water to solvent ([2]; 2-Methylpropan-2-ol, 25 C): 5.5 log10 K
log K of transfer, water to solvent ([2]; 3-Methylbutan-1-ol, 25 C): 5.51 log10 K
log K of transfer, water to solvent ([2]; Acetone, 25 C): 5.34 log10 K
log K of transfer, water to solvent ([2]; Acetonitrile, 25 C): 4.79 log10 K
log K of transfer, water to solvent ([2]; Benzene, 25 C): 6.03 log10 K
log K of transfer, water to solvent ([2]; Butan-1-ol, 25 C): 5.37 log10 K
log K of transfer, water to solvent ([2]; Butanone, 25 C): 5.56 log10 K
log K of transfer, water to solvent ([2]; Butyronitrile, 25 C): 5.32 log10 K
log K of transfer, water to solvent ([2]; CCl4, 25 C): 6.16 log10 K
log K of transfer, water to solvent ([2]; Chlorobenzene, 25 C): 6.1 log10 K
log K of transfer, water to solvent ([2]; Chloroform, 25 C): 6.01 log10 K
log K of transfer, water to solvent ([2]; Cyclohexane, 25 C): 6.18 log10 K
log K of transfer, water to solvent ([2]; Cyclohexanone, 25 C): 5.53 log10 K
log K of transfer, water to solvent ([2]; Decan-1-ol, 25 C): 5.43 log10 K
log K of transfer, water to solvent ([2]; Di-n-butyl ether, 25 C): 5.96 log10 K
log K of transfer, water to solvent ([2]; Dichloromethane, 25 C): 5.83 log10 K
log K of transfer, water to solvent ([2]; Diethyl Ether, 25 C): 6.03 log10 K
log K of transfer, water to solvent ([2]; Ethanol, 25 C): 5.28 log10 K
log K of transfer, water to solvent ([2]; Hexadecane, 25 C): 5.78 log10 K
log K of transfer, water to solvent ([2]; Hexane, 25 C): 6.08 log10 K
log K of transfer, water to solvent ([2]; Methanol, 25 C): 4.93 log10 K
log K of transfer, water to solvent ([2]; Octan-1-ol(dry), 25 C): 5.41 log10 K
log K of transfer, water to solvent ([2]; Pentan-1-ol, 25 C): 5.5 log10 K
log K of transfer, water to solvent ([2]; Perfluoroalkane, 25 C): 4.65 log10 K
log K of transfer, water to solvent ([2]; Propan-1-ol, 25 C): 5.28 log10 K
log K of transfer, water to solvent ([2]; Propan-2-ol, 25 C): 5.28 log10 K
log K of transfer, water to solvent ([2]; Propionitrile, 25 C): 5.16 log10 K
log K of transfer, water to solvent ([2]; Tetrahydrofuran, 25 C): 5.96 log10 K
log K of transfer, water to solvent ([2]; Toluene, 25 C): 6.05 log10 K
log K of transfer, gas to solvent ([3]; 1,2-Dichloroethane, 25 C): 3.44 log10 K
log K of transfer, gas to solvent ([3]; 2-Methylpropan-2-ol, 25 C): 3.39 log10 K
log K of transfer, gas to solvent ([3]; 3-Methylbutan-1-ol, 25 C): 3.4 log10 K
log K of transfer, gas to solvent ([3]; Acetonitrile, 25 C): 2.68 log10 K
log K of transfer, gas to solvent ([3]; Benzene, 25 C): 3.92 log10 K
log K of transfer, gas to solvent ([3]; Butan-1-ol, 25 C): 3.26 log10 K
log K of transfer, gas to solvent ([3]; Butanone, 25 C): 3.45 log10 K
log K of transfer, gas to solvent ([3]; Butyronitrile, 25 C): 3.21 log10 K
log K of transfer, gas to solvent ([3]; CCl4, 25 C): 4.05 log10 K
log K of transfer, gas to solvent ([3]; Chlorobenzene, 25 C): 3.99 log10 K
log K of transfer, gas to solvent ([3]; Chloroform, 25 C): 3.9 log10 K
log K of transfer, gas to solvent ([3]; Cyclohexane, 25 C): 4.07 log10 K
log K of transfer, gas to solvent ([3]; Cyclohexanone, 25 C): 3.42 log10 K
log K of transfer, gas to solvent ([3]; Decan-1-ol, 25 C): 3.32 log10 K
log K of transfer, gas to solvent ([3]; Di-n-butyl ether, 25 C): 3.85 log10 K
log K of transfer, gas to solvent ([3]; Dichloromethane, 25 C): 3.72 log10 K
log K of transfer, gas to solvent ([3]; Diethyl Ether, 25 C): 3.92 log10 K
log K of transfer, gas to solvent ([3]; Ethanol, 25 C): 3.17 log10 K
log K of transfer, gas to solvent ([3]; Hexadecane, 25 C): 3.68 log10 K
log K of transfer, gas to solvent ([3]; Hexane, 25 C): 3.97 log10 K
log K of transfer, gas to solvent ([3]; Methanol, 25 C): 2.82 log10 K
log K of transfer, gas to solvent ([3]; Octan-1-ol, 25 C): 3.3 log10 K
log K of transfer, gas to solvent ([3]; Pentan-1-ol, 25 C): 3.39 log10 K
log K of transfer, gas to solvent ([3]; Perfluoroalkane, 25 C): 2.54 log10 K
log K of transfer, gas to solvent ([3]; Propan-1-ol, 25 C): 3.17 log10 K
log K of transfer, gas to solvent ([3]; Propan-2-ol, 25 C): 3.17 log10 K
log K of transfer, gas to solvent ([3]; Propanone, 25 C): 3.23 log10 K
log K of transfer, gas to solvent ([3]; Propionitrile, 25 C): 3.05 log10 K
log K of transfer, gas to solvent ([3]; Tetrahydrofuran, 25 C): 3.85 log10 K
log K of transfer, gas to solvent ([3]; Toluene, 25 C): 3.94 log10 K
log K of transfer, gas to solvent ([3]; Water, 25 C): -2.11 log10 K
SMILES: CCCCCCCC

SMILES: CN(C)C
log K of transfer, water to solvent [1]: 0.19 log10 K
log K of transfer, water to solvent ([2]; Acetone, 25 C): -0.47 log10 K
log K of transfer, water to solvent ([2]; Benzene, 25 C): -0.3 log10 K
log K of transfer, water to solvent ([2]; Butan-1-ol, 25 C): -0.22 log10 K
log K of transfer, water to solvent ([2]; CCl4, 25 C): -0.23 log10 K
log K of transfer, water to solvent ([2]; Chlorobenzene, 25 C): -0.3 log10 K
log K of transfer, water to solvent ([2]; Chloroform, 25 C): 0.51 log10 K
log K of transfer, water to solvent ([2]; Cyclohexane, 25 C): -0.42 log10 K
log K of transfer, water to solvent ([2]; Diethyl Ether, 25 C): -0.62 log10 K
log K of transfer, water to solvent ([2]; Ethanol, 25 C): 0.32 log10 K
log K of transfer, water to solvent ([2]; Hexadecane, 25 C): -0.73 log10 K
log K of transfer, water to solvent ([2]; Hexane, 25 C): -0.424 log10 K
log K of transfer, water to solvent ([2]; Octan-1-ol(dry), 25 C): -0.41 log10 K
log K of transfer, water to solvent ([2]; Propan-1-ol, 25 C): 0.21 log10 K
log K of transfer, water to solvent ([2]; Toluene, 25 C): -0.36 log10 K
log K of transfer, gas to solvent ([3]; Benzene, 25 C): 2.05 log10 K
log K of transfer, gas to solvent ([3]; Butan-1-ol, 25 C): 2.13 log10 K
log K of transfer, gas to solvent ([3]; CCl4, 25 C): 2.12 log10 K
log K of transfer, gas to solvent ([3]; Chlorobenzene, 25 C): 2.05 log10 K
log K of transfer, gas to solvent ([3]; Chloroform, 25 C): 2.86 log10 K
log K of transfer, gas to solvent ([3]; Cyclohexane, 25 C): 1.93 log10 K
log K of transfer, gas to solvent ([3]; Diethyl Ether, 25 C): 1.73 log10 K
log K of transfer, gas to solvent ([3]; Ethanol, 25 C): 2.67 log10 K
log K of transfer, gas to solvent ([3]; Hexadecane, 25 C): 1.62 log10 K
log K of transfer, gas to solvent ([3]; Hexane, 25 C): 1.93 log10 K
log K of transfer, gas to solvent ([3]; Octan-1-ol, 25 C): 1.94 log10 K
log K of transfer, gas to solvent ([3]; Propan-1-ol, 25 C): 2.56 log10 K
log K of transfer, gas to solvent ([3]; Propanone, 25 C): 1.88 log10 K
log K of transfer, gas to solvent ([3]; Toluene, 25 C): 1.99 log10 K
log K of transfer, gas to solvent ([3]; Water, 25 C): 2.35 log10 K

SMILES: CC(C)(C)c1ccccc1
log K of transfer, water to solvent [1]: 4.11 log10 K
log K of transfer, water to solvent ([2]; Hexadecane, 25 C): 4.09 log10 K
log K of transfer, water to solvent ([2]; Methanol, 25 C): 3.73 log10 K
log K of transfer, water to solvent ([2]; Propan-2-ol, 25 C): 3.78 log10 K
log K of transfer, water to solvent ([2]; Tetrahydrofuran, 25 C): 4.77 log10 K
log K of transfer, gas to solvent ([3]; Hexadecane, 25 C): 4.41 log10 K
log K of transfer, gas to solvent ([3]; Methanol, 25 C): 4.05 log10 K
log K of transfer, gas to solvent ([3]; Propan-2-ol, 25 C): 4.1 log10 K
log K of transfer, gas to solvent ([3]; Tetrahydrofuran, 25 C): 5.09 log10 K
log K of transfer, gas to solvent ([3]; Water, 25 C): 0.32 log10 K

log K of transfer, water to solvent [1]: 1.72 log10 K
log K of transfer, water to solvent ([2]; Butan-1-ol, 25 C): 1.81 log10 K
log K of transfer, water to solvent ([2]; Hexadecane, 25 C): 1.86 log10 K
log K of transfer, water to solvent ([2]; Hexane, 25 C): 2 log10 K
log K of transfer, water to solvent ([2]; Perfluoroalkane, 25 C): 1.44 log10 K
log K of transfer, water to solvent ([2]; Propan-1-ol, 25 C): 1.7 log10 K
log K of transfer, water to solvent ([2]; Propan-2-ol, 25 C): 1.71 log10 K
log K of transfer, gas to solvent ([3]; Butan-1-ol, 25 C): 1.26 log10 K
log K of transfer, gas to solvent ([3]; Hexadecane, 25 C): 1.31 log10 K
log K of transfer, gas to solvent ([3]; Hexane, 25 C): 1.45 log10 K
log K of transfer, gas to solvent ([3]; Perfluoroalkane, 25 C): 0.888 log10 K
log K of transfer, gas to solvent ([3]; Propan-1-ol, 25 C): 1.15 log10 K
log K of transfer, gas to solvent ([3]; Propan-2-ol, 25 C): 1.16 log10 K
log K of transfer, gas to solvent ([3]; Water, 25 C): -0.55 log10 K
SMILES: C1CC1

log K of transfer, water to solvent [1]: 5.88 log10 K
log K of transfer, water to solvent ([2]; Butanone, 25 C): 6.74 log10 K
log K of transfer, water to solvent ([2]; Ethanol, 25 C): 6.24 log10 K
log K of transfer, water to solvent ([2]; Hexadecane, 25 C): 7 log10 K
log K of transfer, water to solvent ([2]; Hexane, 25 C): 7.34 log10 K
log K of transfer, gas to solvent ([3]; Butanone, 25 C): 4.42 log10 K
log K of transfer, gas to solvent ([3]; Ethanol, 25 C): 3.92 log10 K
log K of transfer, gas to solvent ([3]; Hexadecane, 25 C): 4.68 log10 K
log K of transfer, gas to solvent ([3]; Hexane, 25 C): 5.02 log10 K
log K of transfer, gas to solvent ([3]; Water, 25 C): -2.32 log10 K
SMILES: CCCCCCCCCC
